Data set [1] relates to E. coli AG100A. As to the kind of experiment: Real-time ethidium bromide accumulation assay (efflux pump inhibition). The note with it: compound at 100 μM, minute 60.
Data set [2] relates to NIH/3T3 mouse fibroblast cell line. As to the kind of experiment: Cytotoxicity assay (MTT). The format is cell-based. As to conditions: NIH3T3, 24 h. The method, then:
The effects of increasing concentrations of compounds on cell growth were tested in 96-well flat-bottomed microtiter plates. The compounds were diluted in a volume of 100 μL of medium. Afterwards, 1 × 10^4 cells in 100 μL of medium were added to each well, with the exception of the medium control. In the case of NIH/3T3 cells, the compounds were added after seeding the cells at 37 °C overnight. The plates were incubated at 37 °C for 24 h; after the incubation period, 20 μL of MTT solution (from a 5 mg/mL stock) was added to each well. After 4 h of incubation at 37 °C, 100 μL of SDS solution (10% in 0.01 M HCl) was added to each well and the plates were incubated at 37 °C overnight. Cell growth was determined by measuring the optical density (OD) at 540 nm (ref. 630 nm) with a Multiscan EX ELISA reader. Inhibition of cell growth was determined as IC50 values, defined as the inhibitory dose that reduced the growth of the cells exposed to the tested compounds by 50%. IC50 values and the SD of triplicate experiments were calculated by using GraphPad Prism software version 5.00 for Windows with a nonlinear regression curve fit (GraphPad Software, San Diego, CA, USA; www.graphpad.com, accessed on 14 July 2022). Doxorubicin (from a 2 mg/mL stock solution, Teva Pharmaceuticals) was used as the positive control.

Data set [3] concerns Vibrio harveyi. The note with it: aqua-pathogenic Vibrio harveyi; literature, reference not given; cited from earlier work.
Data set [4] concerns S. aureus 272123. Nature of the data set: Real-time ethidium bromide accumulation assay (efflux pump inhibition). As to conditions: minute 60.
In data set [5] the test system is P. aeruginosa ATCC 27853. Nature of the data set: MIC determination, broth microdilution. The class given is cell-based. The note with it: Pseudomonas aeruginosa, ATCC27853. The text has this: (§1) Both reference and resistant strains used in this work were employed by our group for the screening of different families of compounds, such as xanthones and thioxanthones.

Data set [6] deals with E. faecalis B3/101 (VRE). As to the kind of experiment: MIC determination, broth microdilution. The class given is cell-based. As to conditions: Enterococcus faecalis.
Description: as §1
(In general: In broth dilution the organism is exposed to a series of concentrations in liquid medium.)

Data set [7] has as its system S. aureus ATCC 29213. Nature of the data set: MIC determination, broth microdilution. The format is cell-based. The note with it: Staphylococcus aureus.
Description: as §1

Data set [8] has as its system S. aureus MRSA 272123. As to the kind of experiment: MIC determination, broth microdilution. The format is cell-based. As to conditions: Staphylococcus aureus.
Description: as §1

Data set [9] relates to E. faecalis ATCC 29212. Nature of the data set: MIC determination, broth microdilution. The note with it: Enterococcus faecalis. The format is cell-based.
Description: as §1

The test system of data set [10] is S. aureus 66/1 (MRSA). As to the kind of experiment: MIC determination, broth microdilution. The format is cell-based. As to conditions: Staphylococcus aureus.
Description: as §1

Data set [11] has as its system E. coli (ATCC 25922, SA/2, AG100, AG100A). Nature of the data set: MIC determination, broth microdilution. The format is cell-based. The note with it: Escherichia coli, ATCC25922.
Description: as §1

For data set [12], the system named is H1N1. More on the design: method as in PMID 23758051. As to conditions: anti-viral; cited from earlier work.
Data set [13] deals with E. coli AG100. Nature of the data set: Real-time ethidium bromide accumulation assay (efflux pump inhibition). The note with it: minute 60.
Data set [14] relates to E. coli AG100. Nature of the data set: Biofilm formation, crystal violet method. The class given is cell-based, Escherichia coli. As to conditions: 50 μM. The procedure: (§2) The antibiofilm effect of the tested compounds was evaluated using the crystal violet method on E. coli AG100, E. coli AG100A, and MRSA 272123. […] CCCP was used as a positive control.
(§3) The biofilm-forming ability of the S. aureus strains was studied in 96-well microtiter plates using TSB broth in the presence of compounds. The biofilm-forming ability of the E. coli strains was studied in 96-well microtiter plates using LB broth in the presence of the compounds. […] The final volume was 200 μL in each well. The positive control was CCCP at 50 µM. Plates were incubated for 48 h at 30 °C with gentle shaking at 100 rpm. After the incubation period, the medium was removed and the plate was washed with water to remove unattached cells. A total of 200 μL CV (0.1% [v/v]) was added to each wells and incubated for 15 min at room temperature. CV was discarded from the wells and the plate was washed with water again. Then, 200 μL of 70% ethanol was added to each well and the biofilm formation was determined by measuring the OD at 600 nm using a Multiscan EX ELISA plate reader (Thermo Labsystems, Cheshire, WA, USA). The antibiofilm effect of the compounds was expressed as the percentage (%) decrease in biofilm formation.

In data set [15] the test system is E. coli AG100A. As to the kind of experiment: Biofilm formation, crystal violet method. The format is cell-based, Escherichia coli. The method, then:
as §2, §3

The subject of data set [16] is phytopathogenic fungi. More on the design: method as in PMID 22409377. The note with it: several phytopathogenic fungi; cited from earlier work.
Data set [17] relates to Enterococcus faecalis. The note with it: sensitive and vancomycin-resistant strains of E. faecalis; cited from earlier work.
The subject of data set [18] is Staphylococcus aureus. The note with it: sensitive and methicillin-resistant strains of S. aureus; cited from earlier work.
Data set [19] has as its system human brain endothelial cell line (hCMEC/D3). Set-up: method as in PMID 27268269. The note with it: cited from earlier work.
Data set [20] has as its system E. coli AG100, E. coli AG100A, and MRSA 272123. Nature of the data set: Biofilm formation, crystal violet method (overall statement). The class given is cell-based. The procedure: as §2, §3
In data set [21] the test system is S. aureus, including the MRSA strains. As to the kind of experiment: MIC, summary over S. aureus strains. As to conditions: Staphylococcus aureus.
Description: (§4) The MIC of each compound was determined by the broth microdilution method, in accordance with the recommendations of the CLSI [48]. Two-fold serial dilutions of the compounds were prepared in Mueller–Hinton Broth 2 (MHB2–Sigma-Aldrich, St. Louis, MO, USA). Sterility and growth controls were included in each assay. Quality controls were performed with erythromycin for the Gram-positive bacterial strains and with colistin for the Gram-negative bacterial strains. Purity check and colony counts of the inoculum suspensions were also performed to ensure that the final inoculum density closely approximated 5 × 10^5 CFU/mL. The MIC was determined as the lowest concentration at which no visible growth was observed. […] The reported MIC results arose from at least three independent experiments.
For data set [22], the system named is E. faecalis including VRE. Nature of the data set: MIC, summary over E. faecalis strains. As to conditions: Enterococcus faecalis.
Description: as §4
In data set [23] the test system is E. faecalis PSi/107. Nature of the data set: MIC determination, broth microdilution. The class given is cell-based. As to conditions: Enterococcus faecalis.
Description: as §1

Data set [24] deals with E. faecalis PFi/2. As to the kind of experiment: MIC determination, broth microdilution. The note with it: Enterococcus faecalis. The class given is cell-based.
Description: as §1

≈ marks a conversion by molar mass, not a printed value. Where “and” joins values, the source holds several entries; their conditions need not be identical. Identical values can stand only once. Some results are limits rather than exact numbers.

What is called IC50 is the concentration that inhibits the measured activity by half. In general, MIC refers to the least concentration at which growth counts as inhibited. For `O=C1NCc2nc3ccccc3c(=O)n2[C@@H]1Cc1c[nH]c2ccccc12` [Compound 1, (R)-4-((1H-indol-3-yl)methyl)-1,2-dihydro-6H-pyrazino[2,1-b]quinazoline-3,6(4H)-dione], the “RFI ± SD” value is given as 0.12 ± 0.01 in data set [1]; 0.23 ± 0.02 in data set [4] (compound at 50 μM); −0.01 ± 0.04 in data set [4] (compound at 100 μM); −0.24 ± 0.05 in [13] (compound at 50 μM); −0.04 ± 0.10 in data set [13] (compound at 100 μM). The IC50 was greater than 100 µM in data set [2] and 100 to 150 µM in [12]. Also, the MIC was 32 µg/mL (≈ 92.9 µM) in data set [3]; greater than 100 µM in data set [5]; greater than 100 µM in data set [6]; greater than 100 µM in data set [7] (ATCC29213); greater than 100 µM in [8]; greater than 100 µM in data set [9] (ATCC29212). The MIC in data set [10] and in [11] was greater than 100 µM throughout.

In the case of `C[C@@H]1NC(=O)[C@@H](Cc2c[nH]c3ccccc23)n2c1nc1ccccc1c2=O` [Compound 2, (1S,4R)-4-((1H-indol-3-yl)methyl)-1-methyl-1,2-dihydro-6H-pyrazino[2,1-b]quinazoline-3,6(4H)-dione], the “RFI ± SD” value in data set [1] is given as 0.26 ± 0.10; in data set [4] (compound at 50 μM), −0.01 ± 0.02; in [4] (compound at 100 μM), 0.05 ±0.02; in data set [13] (compound at 50 μM), −0.31 ± 0.02; in data set [13] (compound at 100 μM) it was 0.17 ± 0.10. The same compound registered an IC50 in data set [2] greater than 100 µM. Moreover, the “antibiofilm effect (in words)” value in data set [14] is “reduced the amount of biofilm”. In addition, the “decrease in biofilm formation” value in [15] came out at 65%. Also, the minimal inhibitory concentration (MIC) in data set [5], in [6], in data set [7] (ATCC29213), in data set [8], in data set [9] (ATCC29212) and in data set [10] was greater than 100 µM each time. For the same compound, the MIC is greater than 100 µM in data set [11] and 12.5 to 25 µg/mL in data set [16].

As to `CC(C)[C@@H]1NC(=O)[C@@H](C[C@]2(O)c3ccccc3N3C(=O)[C@@H](C)N[C@H]32)n2c1nc1ccccc1c2=O` [Compound 3, Neofiscalin A], the minimum inhibitory concentration (MIC) in data set [17] and in data set [18] was 8 µg/mL (≈ 16.9 µM) each time. In addition, the “cytotoxicity (in words)” value in [19] is “no cytotoxicity”.

For `CC(C)C[C@@H]1NC(=O)[C@H](Cc2c[nH]c3c(Cl)cccc23)n2c1nc1c(Cl)cc(Cl)cc1c2=O` [Compound 12d, (1S,4S)-8,10-dichloro-4-((7-chloro-1H-indol-3-yl)methyl)-1-isobutyl-1,2-dihydro-6H-pyrazino[2,1-b]quinazoline-3,6(4H)-dione], the “RFI ± SD” value in data set [1] is 0.23 ± 0.05; in data set [4] (compound at 12.5 μM), 0.34 ± 0.01; in [13] (compound at 100 μM) it was 0.32 ± 0.10. This compound came in with an IC50 in data set [2] of 47.2 ± 1.55 µM. Moreover, the “antibiofilm capacity (in words)” value in [20] is listed as “did not show any relevant activity”. Moreover, the MIC was 16 to 32 µM (≈ 8.06 to 16.1 µg/mL) in data set [21]; 64 µM (≈ 32.2 µg/mL) in data set [22]; greater than 100 µM in data set [23]; 64 µM and 32 µg/mL in data set [6]; greater than 100 µM in data set [24]; 32 µM in [7] (ATCC29213). The minimum inhibitory concentration (MIC) in [7] (ATCC29213, value in parentheses) was 16 µg/mL; in data set [8] it was 25 µM and 12.6 µg/mL; in data set [9] (ATCC29212) it was 64 µM; in data set [9] (ATCC29212, value in parentheses), 32 µg/mL; in data set [10], 16 µM and 8 µg/mL.

The values above are taken from article PMC10215404, “Effect of Indole-Containing Pyrazino[2,1-b]quinazoline-3,6-diones in the Virulence of Resistant Bacteria” (Antibiotics, 2023).
